Experimental data taken from patent publication US4875922A, “Pyrimidine derivatives” (Imperial Chemical Industries PLC, priority 1986, dated 1989).
Read-outs that look alike come from different tables or passages of the source.

How the values were obtained:
Apple = experiment: Whole plant screen for plant growth regulator activity, apple (AP); assay type: in vivo, Apple (Red Delicious); conditions: 4000 ppm (4 kg/ha), visual score after 2-6 weeks
Method: (§1) Compounds 1 to 3 in Table 1 were tested for plant growth regulator activity against five species for various growth effects relevant to plant growth regulation.
(§2) The plant species used in this screen are presented in Table II with the leaf stage at which they were sprayed. Each chemical was applied at 4000 ppm (4 kg/ha in a 1000 l/ha field volume) using a tracksprayer and a SS8004E (Teejet) nozzle.
(§3) After spray the plants were grown in a glasshouse with 25° C. day/22° C. night temperatures and supplementary lighting was supplied when necessary (from mercury vapour lamps), to provide a 16 hour photoperiod. The exception to this were the temperate cereals, wheat and barley which were grown in 16° C. day/13° C. night temperatures.
(§4) After 2-6 weeks in the glasshouse, depending on the time of year, the plants were visually assessed for morphological characteristics. Formulation blanks were used as controls to assess the plants.
(§5) Additional compounds in Table I were tested for plant growth regulator activity using the method of Example 60 except that Tomato was included in the test as an additional species. Tomato, Ailsa Craig, was grown in a single 3 inch pot in peat and treated at the 2 to 21/2 leaves growth stage. The results were presented in Table IV in which Tomato is indicated by the code TO and the Key is otherwise as for Table III.

Apples = experiment: Intermediate Retardant Test, apples, foliar spray compared with root drench; assay type: in vivo, Apples (Red Delicious); conditions: 672 h, read-out: Percentage Reduction in Height of Apples (Compared to formulation blank); for percent reduction in plant height at 2000 µg/mL: soil, 2000 pmm (Root), root drench
Description: (§6) Three species are involved in this test RICE, SPRING-BARLEY and APPLES. The variety and growth stages at spray are outlined in Table V. Compounds were applied at 500 ppm and 2000 ppm respectively (0.5 kg and 2 kg/ha^-1 at a field volume of 1000 l/ha^-1) as an overall spray except in the case of certain tests on APPLES. This gives a foliar and root component in the test, i.e., this test will detect the activity of both root and foliar acting compounds. The intermediate retardant test on APPLES of which the results are given in Table IX was different, in that a foliar (only) spray at 2000 ppm was compared with a root drench, also at 2000 ppm. The rice was grown in 4" `paddy` pots, i.e., the roots and bottom of the stems are immersed in water under conditions corresponding to those in paddy fields. Spring barley and apples were grown in 4" pots. The plants were assessed for height to top-most ligule at approximately 28 days after treatment for spring barley and rice and for height to apex at approximately 28 days after the treatment for apples. In each case the result for the 500 ppm and 2000 ppm test for each compound is compared to the height of the formulation blank in that test, presented as a percentage reduction in height compared to the formulation blank.
(§7) The prior art compound was compared with compounds of the present invention in side-by-side comparisons using the Intermediate Retardant Test described in Example 62, and the results are given in Tables X to XII where `A` is the prior art compound, 2-methyl-1-isopropyl-1-(pyrimidin-5-yl)-propan-1-ol).

Rice [1] = experiment: Whole plant screen for plant growth regulator activity, rice (RC); assay type: in vivo, Rice (Ishikari); conditions: 4000 ppm (4 kg/ha), visual score after 2-6 weeks; for T = Tillering or side shooting: * = decrease in tillering
Method: as §1, §2, §3, §4, §5

Tomato = experiment: Whole plant screen for plant growth regulator activity, tomato (TO); assay type: in vivo, Tomato (Ailsa Craig); conditions: 4000 ppm (4 kg/ha), visual score after 2-6 weeks
Method: as §2, §3, §4, §5
An astrisk (*) after a score under "T" (tillering) indicated a decrease in tillering.

Barley = experiment: Whole plant screen for plant growth regulator activity, barley (BR); assay type: in vivo, Barley (Atem); conditions: BR, 4000 ppm (4 kg/ha), visual score after 2-6 weeks; for T = Tillering or side shooting: * = decrease in tillering
Method: as §1, §2, §3, §4, §5

Wheat = experiment: Whole plant screen for plant growth regulator activity, wheat (WW); assay type: in vivo, Wheat (Timmo); conditions: WW, 4000 ppm (4 kg/ha), visual score after 2-6 weeks; for T = Tillering or side shooting: * = decrease in tillering
Method: as §1, §2, §3, §4, §5

Rice [2] = experiment: Intermediate Retardant Test, rice; assay type: in vivo, Rice (Ishikari); conditions: Oryza sativa, 672 h, read-out: Percentage Reduction in Height of Rice (Compared to formulation blank)
Description: as §6, §7

Spring Barley = experiment: Intermediate Retardant Test, spring barley; assay type: in vivo, Spring Barley (Atem/kym); conditions: Hordeum vulgare, 672 h, read-out: Percentage Reduction in Height of Spring Barley (Compared to formulation blank)
Description: as §6, §7

[3] = 2000 ppm (Foliar), approximately 28 days, Table IX
[4] = approximately 28 days, Table IX
[5] = overall spray, approximately 28 days, Table VI
[6] = overall spray, approximately 28 days, Table VII
[7] = 2000 ppm (Foliar), side-by-side comparison with prior art compound, Table XII
[8] = 2000 ppm (Root), side-by-side comparison with prior art compound, Table XII
[9] = side-by-side comparison with prior art compound, Table X
[10] = side-by-side comparison with prior art compound, Table XI

SMILES | I = Interligular or internodal length reduction (Apple) | R = Retardation (Apple) | percent reduction in plant height at 2000 ppm (Apples; [3]) [%] | percent reduction in plant height at 2000 µg/mL (Apples; [4]) [%] | G = Greening effect (Rice [1]) | I = Interligular or internodal length reduction (Rice [1]) | R = Retardation (Rice [1]) | G = Greening effect (Tomato) | G = Greening effect (Barley) | I = Interligular or internodal length reduction (Barley) | R = Retardation (Barley) | T = Tillering or side shooting (Barley) | G = Greening effect (Wheat) | I = Interligular or internodal length reduction (Wheat) | R = Retardation (Wheat) | T = Tillering or side shooting (Wheat) | Percent reduction in rice height vs formulation blank at 500 ppm (Rice [2]; [5]) [%] | Percent reduction in rice height vs formulation blank at 2000 ppm (Rice [2]; [5]) [%] | percent reduction in plant height at 500 ppm (Spring Barley; [6]) [%] | percent reduction in plant height at 2000 ppm (Spring Barley; [6]) [%] | also measured
CC(C)CCC#CC(O)(c1cncnc1)C(C)C (stereo not shown) [Compound 12, 2-Methyl-1-(5-methylhex-1-yne)-1-(pyrimidin-5-yl)-propan-1-ol] | 3 (61-100%) | 2 (31-60%) | 2 | 58 | 1 (10-30%) | 2 (31-60%) | 2 (31-60%) | 1 (10-30%) | 2 (31-60%) | 3 (61-100%) | 2 (31-60%) | 3 (61-100%) | 1 (10-30%) | 2 (31-60%) | 2 (31-60%) | 1 (10-30%) | 5 | 8 | 3 | 19 | G = Greening effect (Apple): 1 (10-30%); T = Tillering or side shooting (Rice [1]): 1 (10-30%)
CC(C)C#CC(O)(c1cncnc1)C(C)(C)C (stereo not shown) [Compound 18, 2,2-Dimethyl-1-(3-methylbut-1-yne)-1-(pyrimdin-5-yl)-propan-1-ol] | 3 (61-100%) | 3 (61-100%) | 0 | 69 | 1 (10-30%) | 3 (61-100%) | 3 (61-100%) |  | 2 (31-60%) | 3 (61-100%) | 2 (31-60%) | 3 (61-100%) |  | 3 (61-100%) | 2 (31-60%) | 2 (31-60%) | 13 | 15 | 17 | 55 | G = Greening effect (Apple): 2 (31-60%); I = Interligular or internodal length reduction (Tomato): 3 (61-100%); R = Retardation (Tomato): 3 (61-100%)
CC(C)C(O)(C#CC(C)(C)C)c1cncnc1 (stereo not shown) [Compound 10, 2-Methyl-1-(3,3-dimethylbut-1-yne)-1-(pyrmidin-5-yl)propan-1-ol] | 3 (61-100%) | 2 (31-60%) | 4 | 69 | 1 (10-30%) | 2 (31-60%) | 2 (31-60%) |  | 2 (31-60%) | 3 (61-100%) | 2 (31-60%) | 2 (31-60%) | 2 (31-60%) | 3 (61-100%) | 2 (31-60%) | 1 (10-30%) | 9 | 20 | 29 | 62 | 
CCC(C)CC#CC(O)(c1cncnc1)C(C)C (stereo not shown) [Compound 11, 2-Methyl-1-(4-methylhex-1-yne)-1-(pyrimidin-5-yl)propan-1-ol] |  |  | 6 | 55 |  |  |  |  |  |  |  |  |  |  |  |  | 4 | 14 | 5 | 47 | 
CC(C)C(O)(c1cncnc1)C(C)C [A, 2-methyl-1-isopropyl-1-(pyrimidin-5-yl)-propan-1-ol, reference compound] |  |  |  |  |  |  |  |  |  |  |  |  |  |  |  |  |  |  |  |  | percent reduction in plant height at 2000 ppm (Apples; [7]): 0%; percent reduction in plant height at 2000 ppm (Apples; [8]): 23.5%; Percent reduction in rice height vs formulation blank at 500 ppm (Rice [2]; [9]): 2%; Percent reduction in rice height vs formulation blank at 2000 ppm (Rice [2]; [9]): 0%; percent reduction in plant height at 500 ppm (Spring Barley; [10]): 0%; percent reduction in plant height at 2000 ppm (Spring Barley; [10]): 0%
CCC(C)C#CC(O)(c1cncnc1)C(C)C (stereo not shown) [Compound 5, 2-Methyl-1-(3-methylpent-1-yne)-1-(pyrimidin-5-yl)-propan-1-ol] |  |  | 25.6 | 76.1 |  | 2 (31-60%) | 2 (31-60%) | 2 (31-60%) | 1 (10-30%) | 3 (61-100%) | 3 (61-100%) | 3 (61-100%) | 2 (31-60%) | 3 (61-100%) | 3 (61-100%) | 1 (10-30%) | 39 | 68 | 38 | 72 | T = Tillering or side shooting (Rice [1]): 1 (10-30%); I = Interligular or internodal length reduction (Tomato): 2 (31-60%); R = Retardation (Tomato): 2 (31-60%)
CC(C)CC#CC(O)(c1cncnc1)C(C)C (stereo not shown) [Compound 4, 2-methyl-1-(4-methylpent-1-yne)-1-(pyrimidin-5-yl)-propan-1-ol] |  |  |  |  |  |  |  |  |  |  |  |  |  |  |  |  |  |  |  |  | percent reduction in plant height at 2000 ppm (Apples; [7]): 46.8%; percent reduction in plant height at 2000 ppm (Apples; [8]): 64.6%; Percent reduction in rice height vs formulation blank at 500 ppm (Rice [2]; [9]): 45%; Percent reduction in rice height vs formulation blank at 2000 ppm (Rice [2]; [9]): 66%; percent reduction in plant height at 500 ppm (Spring Barley; [10]): 53%; percent reduction in plant height at 2000 ppm (Spring Barley; [10]): 64%
CCCCCC(O)(c1cncnc1)C(C)(C)C (stereo not shown) [Compound 15, 2,2-Dimethyl-1-(pentyl)-1-(pyrimidin-5-yl)-propan-1-ol] |  |  | 44.2 | 71.1 |  |  |  | 2 (31-60%) |  | 2 (31-60%) | 2 (31-60%) |  | 1 (10-30%) | 3 (61-100%) | 2 (31-60%) | 1 (10-30%) | 13 | 39 | 14 | 33 | I = Interligular or internodal length reduction (Tomato): 2 (31-60%); R = Retardation (Tomato): 2 (31-60%)
